Results reported in publication PMC9181126, “Design, Synthesis, Molecular Docking Analysis and Biological Evaluations of 4-[(Quinolin-4-yl)amino]benzamide Derivatives as Novel Anti-Influenza Virus Agents” (International Journal of Molecular Sciences, 2022).

Legend:
[1] = tested on: PA-PB1 endonuclease; experiment: Experimental PA-PB1 inhibitory activity of literature inhibitors (training and test set); type: biochemical, influenza virus; conditions: class of the experimental IC50
[2] = tested on: PA-PB1 endonuclease; set-up: method as in supplement 1-7; conditions: training and test set compounds collected from literature; ref supplement 1-7; read-out: IC50 value Experimental (PA-PB1 endonuclease inhibitors); cited from earlier work
[3] = biological target: ribonucleoprotein (RNP) of influenza virus (Influenza A virus, UniProt P15659); experiment: cell-based; conditions: HEK-293T; concentration 100 µM; read-out: RNP Reconstitution Assay Inhibition Rate
[4] = tested on: influenza virus A/WSN/33 (H1N1); experiment: microbe, parasite or virus in culture; type: cell-based; conditions: MDCK, 72 h
[5] = in vitro; type: cell-based, canine; conditions: dog
Experimental: (§1) The 3-(4,5-dimethylthiazol-2-yl)-2,5-diphenyltetrazolium bromide (MTT) method was performed to assess the cytotoxicity of target compounds in MDCK cells and HEK293T cells. Firstly, MDCK cells or HEK293T cells were seeded into the 96-well plate. Then, the media containing test compounds replaced the growth media after 48 h. Incubate MDCK cells or HEK293T cells with test compounds for 72 h at 37 °C in a humidified 5% CO2 incubator. Later, MTT solution (5 mg/mL in PBS) was added into each well and plates were incubated for 4 h at 37 °C. Then, add a solubilization solution to lyse cells. Finally, absorbance was read at 620 nm using an ELISA plate reader (Tecan Sunrise) after 3 h of further incubation at 37 °C. We set the values obtained from the wells treated with only DMSO as 100% of viable cells.

[6] = tested on: MDCK cells; experiment: in vitro; type: cell-based, canine; conditions: dog, 72 h
Experimental: as §1

[7] = tested on: influenza virus A/WSN/33 (H1N1); experiment: Plaque inhibition assay in MDCK cells; type: cell-based; conditions: MDCK; concentration 100 µM; read-out: Plaque Inhibition Assay (A/WSN/33, H1N1) Inhibition Rate
[8] = tested on: HEK293T cells; experiment: in vitro; type: cell-based; conditions: human, 72 h
Experimental: as §1

[9] = in vitro; type: cell-based; conditions: human
Experimental: as §1

[10] = H1N1|WSN, read-out: Antiviral activity in CPE assay

SMILES: CC1=CC(c2ccccc2)n2nc(NC(=O)c3ccc(F)cc3)nc2N1 (stereo not drawn) [Compound H27]
- Activity scale Experimental [1]: ++ (++, IC50 100 to 150 μM (moderately active))
- IC50 [2]: 138 µM

SMILES: Cc1cc(-c2ccccc2)n2nc(C(=O)Nc3nc4ccccc4s3)nc2n1 [Compound H09]
- Activity scale Experimental [1]: +++ (+++, IC50 10 to 100 μM (active))
- IC50 [2]: 21 µM

SMILES: CC1=CC(c2ccccc2)n2nc(NC(=O)c3cccc(F)c3)nc2N1 (stereo not drawn) [Compound H26]
- Activity scale Experimental [1]: + (+, IC50 >150 μM (inactive))
- IC50 [2]: 156 µM

SMILES: CC1=CC(c2ccccc2)n2nc(NC(=O)c3ccc(OC(C)C)cc3)nc2N1 (stereo not drawn) [Compound H22]
- Activity scale Experimental [1]: +++ (+++, IC50 10 to 100 μM (active))
- IC50 [2]: 75 µM

SMILES: O=C(NCCO)c1ccc(Nc2ccnc3cc(C(F)(F)F)ccc23)cc1 [Compound G04, N-(2-Hydroxyethyl)-4-{[7-(trifluoromethyl)quinolin-4-yl]amino}benzamide]
- inhibition at 100 µM [3]: 14%
- melting point: 262.5 to 264.1 °C
- inhibition at 12.5 µM [4, 10]: 55.3 ± 4.28%
- inhibition at 25 µM [4, 10]: 54.6 ± 4.19%
- inhibition at 50 µM [4, 10]: 57.1 ± 9.3%
- inhibition at 100 µM [4, 10]: 49.3 ± 0.74%
- EC50 ([4]; read-out: Cytopathic Effect Assay (A/WSN/33, H1N1) EC50): > 100 µM
- CC50 at 72 h [5]: > 100 µM
- MDCK cells survival rate ([6]; 12.5 µmol·L−1): 118.54±1.29%
- MDCK cells survival rate ([6]; 25 µmol·L−1): 110.54±13.59%
- MDCK cells survival rate ([6]; 50 µmol·L−1): 126.43±7.03%
- MDCK cells survival rate ([6]; 100 µmol·L−1): 124.89±12.49%
- inhibition at 100 µM [7]: 59.3%
- HEK293T cells survival rate ([8]; 3.125 µmol·L−1): 112.00±4.22%
- HEK293T cells survival rate ([8]; 6.25 µmol·L−1): 100.01±1.56%
- HEK293T cells survival rate ([8]; 12.5 µmol·L−1): 94.50±4.33%
- HEK293T cells survival rate ([8]; 25 µmol·L−1): 91.99±5.43%
- HEK293T cells survival rate ([8]; 50 µmol·L−1): 98.62±11.78%
- HEK293T cells survival rate ([8]; 100 µmol·L−1): 96.30±10.52%
- CC50 at 72 h [9]: > 100 µM

SMILES: Cc1ccc(-c2cc(-c3ccccc3)nc(SCC(=O)Nc3cccc(Cl)c3)c2C#N)cc1 [Compound H35]
- Activity scale Experimental [1]: + (+, IC50 >150 μM (inactive))
- IC50 [2]: 180 µM
